Measured values as given in US20230331690A1, “THC DERIVATIVES, ORAL DOSAGE FORMS COMPRISING SAME, USES THEREOF FOR TREATING DISEASES AND DISORDERS AND SYNTHESIS THEREOF” (BAR-ILAN UNIVERSITY, priority 2020, published 2023).
Where “and” joins values, the source holds several entries; their conditions need not be identical. Equal values may be shown once. Read-outs that look alike come from different tables or passages of the source.

Legend:
[1] = Persistence over time, brain samples postmortem (Example 18); type: in vivo, mice
Protocol: (§1) Blood samples from each mouse were collected at each time point for the pharmacokinetics tests. For 6 h after administrating of all tested drugs, and after testing their WRL on the hot plate, half the mice (n=3) of each group were sacrificed, and the liver and brain of each animal were taken for pharmacokinetics tests. From the remaining mice, blood samples were acquired at 12 h after administration for pharmacokinetics tests. At 24 h after drug administration, and after checking the WRL again, second half of each group of mice were sacrificed, and the liver and brain of each animal were taken for pharmacokinetics tests.
(§2) All the results of the brain and liver samples, which were taken postmortem 6 h or 24 h after administration (n=3) are summarized in Tables 12-13.

[2] = Body temperature by rectal thermometer (hypothermia)
[3] = Pharmacokinetics, blood samples (Example 17); conditions: mouse, blood, ip, Component in the blood, label = analyte
Protocol: The pharmacokinetics of 9-CD3-(8-D2)-THC compared to natural THC was evaluated using both intraperitoneal i.p. injection and an oral gavage administration for each material. The mice were divided into four groups containing 6 mice (24 mice total). For each group of mice, a blood sample was withdrawn at baseline (t=0), and half-hour intervals (t=0.5, 2 and 5 h) after administration of the drug. Three mice, half of each group, were euthanized with CO2 after 5 h and their organs (brain and liver) were collected. From the second half of each group, another blood sample was withdrawn 24 h after administration, and then these animals were euthanized and the brain and liver were collected for analysis.

[4] = Pharmacokinetics, liver samples (Example 17); type: in vivo, mice; conditions: mouse, liver; for concentration at 24 h: ip; for concentration at 5 h: po
[5] = Persistence over time, liver samples postmortem (Example 18); type: in vivo, mice; conditions: for concentration at 6 h / concentration at 24 h: mouse, liver, oral, read-out: Average results for 3 mice (Table 13, liver); for concentration at 6 h: died at 6 h
Protocol: as §1, §2

[6] = Persistence over time, blood samples (Example 18); type: in vivo, mice; conditions: label = analyte; for Average results, blood samples: 4 mg/kg administration
Protocol: as §1

[7] = test system: mice; experiment: Hot plate assay, withdrawal reflex latency (WRL); type: in vivo; conditions: for Hot plate Time: per animal

CCCCCc1cc(O)c2c(c1)OC(C)(C)[C@@H]1CCC(C)=C[C@@H]21 [THC, Δ-9-tetrahydrocannabinol]
presence in the brain ([1]; 24 h after administration, highest concentration of 8 mg/kg): absent
concentration at 24 h ([1]; mouse, brain, oral, 4 mg/kg administered, died at 24 h, number in brackets = mice with a value, read-out: Average results for 3 mice - brain samples): 14.1 ng/g
concentration at 6 h ([1]; mouse, brain, oral, 8 mg/kg administered, died at 6 h, number in brackets = mice with a value, read-out: Average results for 3 mice - brain samples): 16.9 ng/g
time of strongest effect on body temperature after drug administration ([2]; high concentration of 8 mg/kg oral): 0.5 h
hypothermia effect (body temperature) ([2]; medium concentration of 4 mg/kg oral): very clear hypothermia effect
Body temperature, Avg. change compared to t = 0, at t = 0.5 h ([2]; mice, avg. of 6 mice, 8 mg/kg (groups C+D), t = 0.5 h after administration): −2.1 °C
concentration at 0.5 h ([3]; Average, 0.5 h after i.p. injection of THC or THC-d5, n=6 (THC-d5 n=5)): 63.4 ng/mL
concentration at 0.5 h ([3]; mouse 1, 0.5 h after i.p. injection of THC or THC-d5): 76.8 ng/mL
concentration at 0.5 h ([3]; mouse 2, 0.5 h after i.p. injection of THC or THC-d5): 81.9 ng/mL
concentration at 0.5 h ([3]; mouse 3, 0.5 h after i.p. injection of THC or THC-d5): 49.5 ng/mL
concentration at 0.5 h ([3]; mouse 4, 0.5 h after i.p. injection of THC or THC-d5): 64.4 ng/mL
concentration at 0.5 h ([3]; mouse 5, 0.5 h after i.p. injection of THC or THC-d5): 53.8 ng/mL
concentration at 0.5 h ([3]; mouse 6, 0.5 h after i.p. injection of THC or THC-d5): 53.9 ng/mL
concentration at 24 h ([4]; 24 h after i.p. administration, n=3, read-out: average liver concentration): 7.62 ng/g
concentration at 24 h ([4]; 24 h after i.p. injection of THC or THC-d5, label = analyte, n=3, read-out: Component in the liver, Average): 7.62 ng/mL
concentration at 24 h ([4]; 24 h after i.p. injection of THC or THC-d5, label = analyte, read-out: Component in the liver, mouse 1): 5.55 ng/mL
concentration at 24 h ([4]; 24 h after i.p. injection of THC or THC-d5, label = analyte, read-out: Component in the liver, mouse 2): 8.46 ng/mL
concentration at 24 h ([4]; 24 h after i.p. injection of THC or THC-d5, label = analyte, read-out: Component in the liver, mouse 3): 8.86 ng/mL
concentration at 5 h ([4]; 5 h after oral gavage administration of THC or THC-d5, label = analyte, n=3, read-out: Component in the liver, Average): 3.77 ng/mL
concentration at 5 h ([4]; 5 h after oral gavage administration of THC or THC-d5, label = analyte, read-out: Component in the liver, mouse 1): 1.41 ng/mL
concentration at 5 h ([4]; 5 h after oral gavage administration of THC or THC-d5, label = analyte, read-out: Component in the liver, mouse 2): 4.94 ng/mL
concentration at 5 h ([4]; 5 h after oral gavage administration of THC or THC-d5, label = analyte, read-out: Component in the liver, mouse 3): 4.97 ng/mL
concentration at 5 h ([4]; 5 h after oral gavage administration, n=3, read-out: average liver concentration): 3.77 ng/g
Average results for 3 mice (Table 13, liver) ([5]; 2 mg/kg administered, died at 24 h, number in brackets = mice with a value): 0.74 (2/3) ng/g
concentration at 6 h ([5]; 2 mg/kg administered): 9.18 ng/g
concentration at 6 h ([5]; 4 mg/kg administered): 11.4 ng/g
concentration at 24 h ([5]; 4 mg/kg administered, died at 24 h, number in brackets = mice with a value): 0.87 ng/g
concentration at 6 h ([5]; 8 mg/kg administered): 11.1 ng/g
concentration at 24 h ([5]; 8 mg/kg administered, died at 24 h, number in brackets = mice with a value): 3.52 ng/g
Average results, blood samples ([6]; Time 3 h): 2.78 (4/6) ng/mL
Average results, blood samples ([6]; Time 6 h): 2.44 (5/5) ng/mL
Average results, blood samples ([6]; Time 24 h (3 mice)): 0.25 (2/2) ng/mL
concentration at 0.5 h ([6]; mouse, blood, oral, 4 mg/kg administration of THC or THC-d5, Time 0.5 h): 10.5 ng/mL
concentration at 0.5 h ([6]; mouse, blood, oral, 8 mg/kg administration of THC or THC-d5, Time 0.5 h): 14.3 ng/mL
concentration at 3 h ([6]; mouse, blood, oral, 8 mg/kg administration, Time 3 h): 6.53 ng/mL
concentration at 6 h ([6]; mouse, blood, oral, 8 mg/kg administration, Time 6 h): 4.14 ng/mL
concentration at 12 h ([6]; mouse, blood, oral, 8 mg/kg administration, Time 12 h (3 mice)): 0.81 ng/mL
concentration at 24 h ([6]; mouse, blood, oral, 8 mg/kg administration, Time 24 h (3 mice)): 0.26 ng/mL
Hot plate Avg. 6 mice ([7]; 2 mg/Kg oral, t = 0.5 h): 7.38 s
Hot plate Time ([7]; 2 mg/Kg oral, t = 0.5 h): 5.7 s and 11.5 s and 8.9 s and 9.2 s and 3.2 s and 5.8 s
Hot plate Avg. 6 mice ([7]; 2 mg/Kg oral, t = 3 h): 9.77 s
Hot plate Time ([7]; 2 mg/Kg oral, t = 3 h): 9.5 s and 8.5 s and 18.0 s and 10.4 s and 5.3 s and 6.9 s
Hot plate Avg. 6 mice ([7]; 2 mg/Kg oral, t = 6 h): 9.77 s
Hot plate Time ([7]; 2 mg/Kg oral, t = 6 h): 13.5 s and 6.3 s and 12.5 s and 8.7 s and 6.6 s and 11.0 s
Hot plate Avg. 3 mice ([7]; 2 mg/Kg oral, t = 24 h): 6.53 s
Hot plate Time ([7]; 2 mg/Kg oral, t = 24 h): 7.8 s and 7.4 s and 4.4 s
decrease in the WRL compared to baseline ([7]; 2 mg/kg, 0.5 h): 1%
change in average WRL compared to baseline ([7]; 2 mg/kg, 3 h): +31%
change in average WRL compared to baseline ([7]; 2 mg/kg, 6 h): +31%
Hot plate Avg. 6 mice ([7]; 4 mg/Kg oral, t = 0.5 h): 12.48 s
Hot plate Time ([7]; 4 mg/Kg oral, t = 0.5 h): 11.3 sec. (2×) and 19.8 sec. and 6.3 sec. and 14.0 sec. and 12.2 sec.
Hot plate Avg. 6 mice ([7]; 4 mg/Kg oral, t = 3 h): 11.00 s
Hot plate Time ([7]; 4 mg/Kg oral, t = 3 h): 17.3 s and 8.0 s and 9.3 s and 6.9 s and 13.9 s and 10.6 s
Hot plate Avg. 6 mice ([7]; 4 mg/Kg oral, t = 6 h): 8.92 s
Hot plate Time ([7]; 4 mg/Kg oral, t = 6 h): 12.1 sec. and 2.4 sec. and 3.0 sec. and 14.0 sec. (2×) and 8.0 sec.
Hot plate Avg. 3 mice ([7]; 4 mg/Kg oral, t = 24 h): 10.43 s
Hot plate Time ([7]; 4 mg/Kg oral, t = 24 h): 13.7 s and 12.8 s and 4.8 s
increase in the WRL compared to baseline ([7]; 4 mg/kg, 0.5 h): 23%
change in average WRL compared to baseline ([7]; 4 mg/kg, 3 h): +8%
change in average WRL compared to baseline ([7]; 4 mg/kg, 6 h): −12%
Hot plate Avg. 6 mice ([7]; 8 mg/Kg oral, t = 0.5 h): 13.22 s
Hot plate Time ([7]; 8 mg/Kg oral, t = 0.5 h, cut-off 30 s): 15.2 s and 11.1 s and 14.2 s and 6.7 s and 19.6 s and 12.5 s
Hot plate Avg. 6 mice ([7]; 8 mg/Kg oral, t = 3 h): 12.45 s
Hot plate Time ([7]; 8 mg/Kg oral, t = 3 h, cut-off 30 s): 21.6 s and 9.0 s and 9.8 s and 9.5 s and 12.5 s and 12.3 s
Hot plate Avg. 6 mice ([7]; 8 mg/Kg oral, t = 6 h): 12.03 s
Hot plate Time ([7]; 8 mg/Kg oral, t = 6 h): 13.2 s and 9.2 s and 6.8 s and 16.7 s and 17.0 s and 9.3 s
Hot plate Avg. 3 mice ([7]; 8 mg/Kg oral, t = 24 h): 10.27 s
Hot plate Time ([7]; 8 mg/Kg oral, t = 24 h, cut-off 30 s): 8.1 s and 15.7 s and 7.0 s
average increase in WRL compared to baseline (t=0) ([7]; 8 mg/kg, 0.5 h): 67.3%
change in average WRL compared to t=0 at baseline ([7]; 8 mg/kg, 3 h): +57.5%
change in average WRL compared to baseline ([7]; 8 mg/kg, 6 h): +52%
